Assays:
[1] = system: NMDA Nr1neo−/− mice; experiment: Spontaneous locomotor hyperactivity of transgenic mice; assay type: in vivo
Method: (§1) An actimeter device consisting of a cylinder (20 cm diameter, 9.5 cm height, Apelex, France) equipped with two perpendicular light beams located 1.5 cm above the floor was used. Mice from the transgenic batches (DAT^−/− and NMDA Nr1^neo−/−) were orally pretreated with either SAR218645 or vehicle and individually isolated in boxes for a period of 60 min. Animals were then placed in the actimeter device and locomotor activity (number of interrupted light beams) was recorded for a period of 30 or 60 min. Mice in which the expression of the dopamine transporter (DAT) was knocked out (i.e., the DAT^−/− mouse) have been proposed as a reliable model of the positive symptoms of schizophrenia. In these mice, dopamine levels in the synapse are dramatically elevated and these animals are hyperactive and agitated in behavioral tests. NMDA Nr1^neo−/− mice express only 5 to 10% of normal levels of the NR1 subunit of the NMDA receptor[33], thus mimicking a hypo-glutamatergic state. […] As such, they have been proposed as an animal model of schizophrenia. […] As such, in our present experiments, a relatively moderate dose of amphetamine (2 mg/kg ip) or MK-801 (0.2 mg/kg, ip) was used to selectively induce similar hyperactivity, with no noticeable appearance of stereotyped behaviors in normal mice. For amphetamine or MK-801 antagonism experiments, male Swiss mice (20–30 g) were orally pretreated with SAR218645, haloperidol or vehicle, immediately individually isolated in a Plexiglas box, followed 30 min later by administration of vehicle, amphetamine or MK-801. Immediately following amphetamine challenge, 30 min after MK-801 challenge, mice were placed in the actimeter devices and locomotor activity was recorded for a period of 30 (DAT^−/−) or 60 (NMDA Nr1^neo−/−) min.
(§2) Statistical analyses were performed using SAS V8.2 software (SAS Institute, Cary, NC, USA). The number of light beam breaks (motility count) recorded for 30 or 60 min were analyzed using one-way ANOVAs using a fixed factor of challenge or genotype and complementary post hoc (Newman-Keuls) tests were performed. Five to nine animals per group were used.

[2] = system: DAT−/− mice; experiment: as above; assay type: in vivo
Method: as §1, §2

[3] = system: CD-1 mice; experiment: LY404039-induced turning behavior; assay type: in vivo
Method: Under light restraint, a single unilateral intracortical infusion of the selective mGluR2/3 receptor agonist, LY404039, was performed in CD-1 mice (25–30 g at arrival). An injection point was assessed using the eyes and back of the skull as landmarks. Immediately following the application of LY404039, the observation period began. The number of contralateral turns elicited in a 5 min period was recorded. SAR218645 was administered orally 60 min before infusion of LY404039 and the potentiation of the turning behavior was noted. The selective mGluR2/3 receptor antagonist, LY341495, was administered ip 90 min prior to infusion of LY404039. Statistical analysis was performed using Kruskal Wallis test followed by a Wilcoxon two-tailed comparison. Ten animals per group were used.

[4] = biological target: human mGluR2 (Homo sapiens, UniProt Q14416); experiment: Forskolin-stimulated cAMP accumulation in HEK293 cells; assay type: cell-based; set-up: expressed in transfected cells; host or cells: HEK293 Flp-in-T-REx (inducible), co-expressing Gα16
Method: Recombinant human mGluR2 receptor and the excitatory amino acid transporter SLCA1 were stably expressed in a doxycycline inducible HEK293 Flp-in-T-Rex cell line. […] Cells were treated with the compounds, and cAMP production was induced with 1 μM Forskolin for 5 min. cAMP was detected using the CisBio HTRF detection kit. […] EC50 were calculated using 4-parameter curve fitting.

[5] = biological target: rat mGluR2 (Rattus norvegicus, UniProt P31421); experiment: Ca2+ mobilization assay, HEK293 cells expressing rat mGluR2/Gα16
Method: Recombinant rat and human mGluR2 receptors were stably expressed in HEK293 Flp-in-T-REx cell lines with Gα16. Receptor and G-protein expression were induced with either tetracycline or doxycycline 20–24 hr before the experiment. Growth medium was replaced with HBSS buffer containing Ca^2+ and Mg^2+, 20 mM HEPES. Calcium mobilization was monitored using Fluo-4 or Calcium-3 dye on a Functional Drug Screening System (FDSS) reader (Hamamatsu Photonics, Hamamatsu City, Japan). Responses were measured as peak fluorescence intensity minus basal fluorescence. EC50 values were calculated using 4-parameter curve fitting.

[6] = system: Sprague-Dawley rats; experiment: Catalepsy test; assay type: in vivo; settings: 30, po
Method: Male Sprague-Dawley rats weighing 225–234 g were used. Each animal was placed such that their forepaws rested on a wooden dowel (1 × 18 cm) mounted horizontally 9 cm from the floor and 4 cm from one end of a white translucent plastic box (26 × 20 × 15 cm). The amount of time each rat spent with at least one forepaw on the bar was determined, for a maximum period of 540 s. This procedure was repeated three times. White noise was used during the acclimation and test periods to minimize the effects of outside noises. SAR218645 was administered alone at a dose of 30 mg/kg po. Haloperidol (1 mg/kg ip) was used alone and in co-administration with SAR218645 (1, 3, and 10 mg/kg, po). Statistics consisted of using a one-way ANOVA, followed by a post-hoc Dunnett’s test for individual comparisons. Ten animals per group were used.

Chain of rat mGluR2 (P31421 19-872): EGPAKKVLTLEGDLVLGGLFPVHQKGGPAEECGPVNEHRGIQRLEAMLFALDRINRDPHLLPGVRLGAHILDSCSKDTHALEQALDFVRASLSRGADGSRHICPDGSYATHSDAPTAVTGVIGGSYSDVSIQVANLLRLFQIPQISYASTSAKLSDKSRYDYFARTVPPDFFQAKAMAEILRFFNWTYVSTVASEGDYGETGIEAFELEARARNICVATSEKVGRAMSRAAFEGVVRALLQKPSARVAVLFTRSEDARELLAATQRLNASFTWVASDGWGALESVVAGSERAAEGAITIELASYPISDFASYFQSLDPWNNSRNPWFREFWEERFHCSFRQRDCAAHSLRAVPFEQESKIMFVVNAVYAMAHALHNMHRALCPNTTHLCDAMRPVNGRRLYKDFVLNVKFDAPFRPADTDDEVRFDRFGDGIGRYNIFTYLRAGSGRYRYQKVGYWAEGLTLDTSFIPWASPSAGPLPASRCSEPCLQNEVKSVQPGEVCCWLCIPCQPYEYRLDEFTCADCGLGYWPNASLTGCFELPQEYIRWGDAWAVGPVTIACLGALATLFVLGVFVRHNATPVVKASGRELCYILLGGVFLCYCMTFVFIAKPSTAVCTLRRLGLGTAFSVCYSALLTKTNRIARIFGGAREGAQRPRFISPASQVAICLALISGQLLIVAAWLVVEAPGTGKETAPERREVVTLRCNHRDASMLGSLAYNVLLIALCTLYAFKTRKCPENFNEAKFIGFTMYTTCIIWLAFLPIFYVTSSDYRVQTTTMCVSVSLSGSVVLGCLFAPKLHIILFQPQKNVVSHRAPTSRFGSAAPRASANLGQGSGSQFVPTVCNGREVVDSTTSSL
Chain of human mGluR2 (Q14416 19-872): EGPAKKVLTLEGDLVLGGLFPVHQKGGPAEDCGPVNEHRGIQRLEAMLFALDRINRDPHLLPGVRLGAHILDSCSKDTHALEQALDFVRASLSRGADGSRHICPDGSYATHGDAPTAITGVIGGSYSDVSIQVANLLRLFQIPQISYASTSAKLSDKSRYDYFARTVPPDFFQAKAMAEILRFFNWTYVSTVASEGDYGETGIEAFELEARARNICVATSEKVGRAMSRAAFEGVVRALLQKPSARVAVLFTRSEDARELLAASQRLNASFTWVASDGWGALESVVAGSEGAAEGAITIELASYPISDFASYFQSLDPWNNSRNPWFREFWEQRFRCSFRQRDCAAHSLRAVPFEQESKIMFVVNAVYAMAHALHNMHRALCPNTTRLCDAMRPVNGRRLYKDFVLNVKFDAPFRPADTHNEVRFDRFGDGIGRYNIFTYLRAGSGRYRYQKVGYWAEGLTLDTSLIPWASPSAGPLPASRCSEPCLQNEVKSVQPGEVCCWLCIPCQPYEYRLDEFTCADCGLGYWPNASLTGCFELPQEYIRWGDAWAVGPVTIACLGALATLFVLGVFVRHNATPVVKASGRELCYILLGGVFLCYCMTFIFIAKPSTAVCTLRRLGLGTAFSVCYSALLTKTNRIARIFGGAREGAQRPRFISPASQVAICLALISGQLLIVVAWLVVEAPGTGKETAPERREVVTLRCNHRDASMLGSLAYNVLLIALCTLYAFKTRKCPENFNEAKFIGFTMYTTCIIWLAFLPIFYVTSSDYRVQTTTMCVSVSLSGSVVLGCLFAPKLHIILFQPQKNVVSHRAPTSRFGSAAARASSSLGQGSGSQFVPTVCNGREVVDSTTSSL

## CC1(C)CCc2cc(OC[C@@H]3Cn4ccc(=O)nc4O3)ccc21 [SAR218645, (S)-2-(1,1-dimethyl-indan-5-yloxymethyl)-2,3-dihydro-oxazolo[3,2-a]pyrimidin-7-one]
[1]; NMDA Nr1neo−/− mice, SAR218645 po
  effect on locomotor activity: no effects
[1]; dose-range 1–10, po
  Minimal active dose: >10 mg/kg
[2]; DAT−/− mice, SAR218645 po
  effect on locomotor activity: no effects
[2]; dose-range 3–10, po
  Minimal active dose: >10 mg/kg
[3]; 3 and 10 mg/kg po, 60 min before LY404039 infusion, P < 0.01
  effect on LY404039-induced turning behavior: potentiated significantly
[3]; dose-range 1–10, po, CD-1 mice
  Minimal active dose: 3 mg/kg
[4]
  EC50: 159 nM
[5]; EC10 concentration (100 nM) of glutamate
  effect on response to EC10 glutamate: enhanced sensitivity to glutamate
[5]; absence of glutamate
  intrinsic agonism (compound alone): no effect per se
[5]; increasing concentrations of SAR218645
  effect on maximal response to glutamate: no significant increase
[5]; increasing concentrations of SAR218645, HEK293 rat mGluR2/Gα16
  enhancement of glutamate potency (leftward shift of glutamate concentration-response curve): approximately 25 fold
[6]
  Minimal active dose: >30 mg/kg

— PMC5062470, “The mGluR2 positive allosteric modulator, SAR218645, improves memory and attention deficits in translational models of cognitive symptoms associated with schizophrenia” (Scientific Reports, 2016)
